Test results from ChEMBL document CHEMBL1201862, “PubChem BioAssay data set” (2004).
The source made the active and inactive calls.

Tests used:
[1] = biological target: T1, Tyrosyl-DNA phosphodiesterase 2 (Homo sapiens, UniProt O95551); assay: potency against TDP2 phosphodiesterase activity – biochemical, epi absorbance, IC50, dose response (AID 743297)
T1 sequence (O95551 whole entry): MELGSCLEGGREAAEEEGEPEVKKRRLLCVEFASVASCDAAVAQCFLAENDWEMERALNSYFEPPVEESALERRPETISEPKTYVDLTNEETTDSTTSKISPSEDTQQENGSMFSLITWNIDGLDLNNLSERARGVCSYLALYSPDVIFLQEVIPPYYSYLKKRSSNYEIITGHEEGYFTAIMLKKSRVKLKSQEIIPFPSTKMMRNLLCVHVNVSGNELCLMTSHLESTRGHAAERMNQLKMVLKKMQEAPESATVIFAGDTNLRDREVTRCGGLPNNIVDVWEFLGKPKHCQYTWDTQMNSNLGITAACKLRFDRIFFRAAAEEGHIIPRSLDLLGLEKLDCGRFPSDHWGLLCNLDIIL

[2] = biological target: T2, Dual specificity protein phosphatase 6 (Rattus norvegicus, UniProt Q64346); assay: inhibition of rat DUSP6 enzyme activity – biochemical, in vitro, primary screen (AID 425)
T2 sequence (Q64346 whole entry): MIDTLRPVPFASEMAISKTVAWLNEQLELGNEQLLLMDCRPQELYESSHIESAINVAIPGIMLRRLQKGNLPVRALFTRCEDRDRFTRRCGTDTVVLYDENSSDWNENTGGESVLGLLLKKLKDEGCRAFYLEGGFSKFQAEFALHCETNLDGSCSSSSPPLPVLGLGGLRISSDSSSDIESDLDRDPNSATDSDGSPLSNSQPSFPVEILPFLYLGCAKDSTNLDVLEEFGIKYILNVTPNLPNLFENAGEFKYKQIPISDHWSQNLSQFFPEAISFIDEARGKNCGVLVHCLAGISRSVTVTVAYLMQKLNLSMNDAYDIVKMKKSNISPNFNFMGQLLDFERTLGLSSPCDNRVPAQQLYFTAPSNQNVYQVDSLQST

[3] = biological target: T3, Apoptotic protease-activating factor 1 (Homo sapiens, UniProt O14727); format: functional
T3 sequence (O14727 whole entry): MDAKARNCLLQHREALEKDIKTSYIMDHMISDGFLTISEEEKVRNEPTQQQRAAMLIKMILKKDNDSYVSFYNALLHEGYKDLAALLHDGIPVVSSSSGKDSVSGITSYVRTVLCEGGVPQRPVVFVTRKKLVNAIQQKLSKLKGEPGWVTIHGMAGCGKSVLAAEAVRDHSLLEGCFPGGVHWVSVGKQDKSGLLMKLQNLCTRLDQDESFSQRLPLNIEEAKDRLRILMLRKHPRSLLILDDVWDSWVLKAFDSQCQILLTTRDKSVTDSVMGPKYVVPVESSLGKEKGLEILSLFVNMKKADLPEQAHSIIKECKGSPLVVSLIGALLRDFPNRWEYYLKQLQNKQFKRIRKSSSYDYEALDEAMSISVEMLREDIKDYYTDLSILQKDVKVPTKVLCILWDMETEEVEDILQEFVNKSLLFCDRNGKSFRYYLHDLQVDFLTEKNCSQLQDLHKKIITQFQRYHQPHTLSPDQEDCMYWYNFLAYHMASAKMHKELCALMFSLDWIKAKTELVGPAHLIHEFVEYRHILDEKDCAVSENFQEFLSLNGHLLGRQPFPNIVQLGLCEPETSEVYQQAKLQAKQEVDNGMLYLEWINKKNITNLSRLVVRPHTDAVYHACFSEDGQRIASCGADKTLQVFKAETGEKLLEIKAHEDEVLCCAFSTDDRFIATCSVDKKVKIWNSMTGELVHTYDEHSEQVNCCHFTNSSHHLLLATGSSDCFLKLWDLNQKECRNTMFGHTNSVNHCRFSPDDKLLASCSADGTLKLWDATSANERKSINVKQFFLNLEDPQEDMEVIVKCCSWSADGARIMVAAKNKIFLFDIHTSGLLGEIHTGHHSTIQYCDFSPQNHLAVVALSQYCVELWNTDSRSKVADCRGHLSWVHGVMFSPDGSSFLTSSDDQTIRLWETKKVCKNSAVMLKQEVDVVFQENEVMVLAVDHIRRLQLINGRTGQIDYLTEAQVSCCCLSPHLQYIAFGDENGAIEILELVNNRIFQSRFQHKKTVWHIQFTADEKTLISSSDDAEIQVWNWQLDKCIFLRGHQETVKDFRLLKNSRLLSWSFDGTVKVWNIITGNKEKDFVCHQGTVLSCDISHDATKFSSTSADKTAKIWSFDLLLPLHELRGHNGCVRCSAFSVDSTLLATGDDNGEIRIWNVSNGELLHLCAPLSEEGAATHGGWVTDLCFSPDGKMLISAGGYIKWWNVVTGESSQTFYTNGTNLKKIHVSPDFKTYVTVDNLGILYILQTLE

[4] = biological target: Serine/threonine-protein kinase TBK1 (Homo sapiens, UniProt Q9UHD2); assay: Navigating the Kinome. Panel member name: TBK1; format: functional
[5] = biological target: Leucine-rich repeat serine/threonine-protein kinase 2 (Homo sapiens, UniProt Q5S007); format: functional;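 also: value from a broad kinome-wide panel profiling study in which LRRK2 was one of the kinases tested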
[6] = biological target: Protein kinase C theta type (Homo sapiens, UniProt Q04759); assay: Navigating the Kinome. Panel member name: PRKCQ; format: functional
Protein kinase C theta type, sequence (Q04759 whole entry): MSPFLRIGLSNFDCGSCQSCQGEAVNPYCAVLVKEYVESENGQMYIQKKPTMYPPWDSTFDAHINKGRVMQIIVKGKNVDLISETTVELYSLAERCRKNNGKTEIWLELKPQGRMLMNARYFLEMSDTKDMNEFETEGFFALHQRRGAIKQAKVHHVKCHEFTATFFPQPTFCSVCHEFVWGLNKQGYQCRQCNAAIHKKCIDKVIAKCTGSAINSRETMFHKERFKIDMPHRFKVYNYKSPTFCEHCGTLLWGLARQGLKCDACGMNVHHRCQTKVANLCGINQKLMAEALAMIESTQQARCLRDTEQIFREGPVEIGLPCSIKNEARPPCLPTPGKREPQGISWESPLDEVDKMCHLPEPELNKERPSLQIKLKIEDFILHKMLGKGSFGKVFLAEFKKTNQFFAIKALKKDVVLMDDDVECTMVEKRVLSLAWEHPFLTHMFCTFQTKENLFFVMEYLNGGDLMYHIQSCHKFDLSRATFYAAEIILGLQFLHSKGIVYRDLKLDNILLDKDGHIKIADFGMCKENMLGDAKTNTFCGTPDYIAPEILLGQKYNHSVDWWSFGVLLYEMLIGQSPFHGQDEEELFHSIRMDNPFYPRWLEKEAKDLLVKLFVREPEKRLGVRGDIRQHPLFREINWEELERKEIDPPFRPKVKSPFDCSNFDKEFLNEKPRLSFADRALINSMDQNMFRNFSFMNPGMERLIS

[7] = biological target: Serine/threonine-protein kinase Nek4 (Homo sapiens, UniProt P51957); format: functional
Serine/threonine-protein kinase Nek4, sequence (P51957 whole entry): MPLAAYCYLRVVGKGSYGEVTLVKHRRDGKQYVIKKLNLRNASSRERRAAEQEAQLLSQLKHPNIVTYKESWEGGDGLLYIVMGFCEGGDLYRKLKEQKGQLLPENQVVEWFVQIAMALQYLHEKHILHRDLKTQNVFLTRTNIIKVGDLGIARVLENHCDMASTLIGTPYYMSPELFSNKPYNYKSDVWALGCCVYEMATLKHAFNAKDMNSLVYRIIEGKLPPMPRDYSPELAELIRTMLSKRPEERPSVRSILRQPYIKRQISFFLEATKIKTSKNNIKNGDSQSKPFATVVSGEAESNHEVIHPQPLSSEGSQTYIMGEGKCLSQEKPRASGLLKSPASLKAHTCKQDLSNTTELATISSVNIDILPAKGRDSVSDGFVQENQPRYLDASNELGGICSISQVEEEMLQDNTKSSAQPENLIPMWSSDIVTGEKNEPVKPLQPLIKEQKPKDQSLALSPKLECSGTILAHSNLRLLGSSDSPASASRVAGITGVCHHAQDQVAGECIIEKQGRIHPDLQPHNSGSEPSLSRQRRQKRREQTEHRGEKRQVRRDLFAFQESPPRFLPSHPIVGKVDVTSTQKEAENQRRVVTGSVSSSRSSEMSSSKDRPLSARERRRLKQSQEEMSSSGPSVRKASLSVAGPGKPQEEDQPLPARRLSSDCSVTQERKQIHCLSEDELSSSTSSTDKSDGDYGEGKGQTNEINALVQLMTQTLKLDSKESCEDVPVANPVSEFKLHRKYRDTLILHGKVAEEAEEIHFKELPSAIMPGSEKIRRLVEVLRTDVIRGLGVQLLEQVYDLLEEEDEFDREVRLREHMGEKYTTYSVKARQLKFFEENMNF

[8] = biological target: Lymphokine-activated killer T-cell-originated protein kinase (Homo sapiens, UniProt Q96KB5); format: functional;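 also: value comes from a kinase panel screen in which TOPK was one of the panel members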
Lymphokine-activated killer T-cell-originated protein kinase, sequence (Q96KB5 whole entry, canonical isoform): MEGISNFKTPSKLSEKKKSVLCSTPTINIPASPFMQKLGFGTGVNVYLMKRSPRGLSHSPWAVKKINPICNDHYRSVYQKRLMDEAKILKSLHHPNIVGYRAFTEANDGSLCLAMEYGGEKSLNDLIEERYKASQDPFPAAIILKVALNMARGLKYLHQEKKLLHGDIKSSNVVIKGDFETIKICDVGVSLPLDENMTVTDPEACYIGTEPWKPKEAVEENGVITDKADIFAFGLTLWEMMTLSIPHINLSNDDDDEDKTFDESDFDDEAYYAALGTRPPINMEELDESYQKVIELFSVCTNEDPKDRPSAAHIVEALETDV

[9] = biological target: Casein kinase I isoform gamma-1 (Homo sapiens, UniProt Q9HCP0); format: functional;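 also: measured as the CSNK1G1 member of a kinome profiling panel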
Misshapen-like kinase 1 = Misshapen-like kinase 1 (Homo sapiens, UniProt Q8N4C8); format: functional;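 also: kinome panel screen with MINK as the panel member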
Misshapen-like kinase 1, sequence (Q8N4C8 whole entry): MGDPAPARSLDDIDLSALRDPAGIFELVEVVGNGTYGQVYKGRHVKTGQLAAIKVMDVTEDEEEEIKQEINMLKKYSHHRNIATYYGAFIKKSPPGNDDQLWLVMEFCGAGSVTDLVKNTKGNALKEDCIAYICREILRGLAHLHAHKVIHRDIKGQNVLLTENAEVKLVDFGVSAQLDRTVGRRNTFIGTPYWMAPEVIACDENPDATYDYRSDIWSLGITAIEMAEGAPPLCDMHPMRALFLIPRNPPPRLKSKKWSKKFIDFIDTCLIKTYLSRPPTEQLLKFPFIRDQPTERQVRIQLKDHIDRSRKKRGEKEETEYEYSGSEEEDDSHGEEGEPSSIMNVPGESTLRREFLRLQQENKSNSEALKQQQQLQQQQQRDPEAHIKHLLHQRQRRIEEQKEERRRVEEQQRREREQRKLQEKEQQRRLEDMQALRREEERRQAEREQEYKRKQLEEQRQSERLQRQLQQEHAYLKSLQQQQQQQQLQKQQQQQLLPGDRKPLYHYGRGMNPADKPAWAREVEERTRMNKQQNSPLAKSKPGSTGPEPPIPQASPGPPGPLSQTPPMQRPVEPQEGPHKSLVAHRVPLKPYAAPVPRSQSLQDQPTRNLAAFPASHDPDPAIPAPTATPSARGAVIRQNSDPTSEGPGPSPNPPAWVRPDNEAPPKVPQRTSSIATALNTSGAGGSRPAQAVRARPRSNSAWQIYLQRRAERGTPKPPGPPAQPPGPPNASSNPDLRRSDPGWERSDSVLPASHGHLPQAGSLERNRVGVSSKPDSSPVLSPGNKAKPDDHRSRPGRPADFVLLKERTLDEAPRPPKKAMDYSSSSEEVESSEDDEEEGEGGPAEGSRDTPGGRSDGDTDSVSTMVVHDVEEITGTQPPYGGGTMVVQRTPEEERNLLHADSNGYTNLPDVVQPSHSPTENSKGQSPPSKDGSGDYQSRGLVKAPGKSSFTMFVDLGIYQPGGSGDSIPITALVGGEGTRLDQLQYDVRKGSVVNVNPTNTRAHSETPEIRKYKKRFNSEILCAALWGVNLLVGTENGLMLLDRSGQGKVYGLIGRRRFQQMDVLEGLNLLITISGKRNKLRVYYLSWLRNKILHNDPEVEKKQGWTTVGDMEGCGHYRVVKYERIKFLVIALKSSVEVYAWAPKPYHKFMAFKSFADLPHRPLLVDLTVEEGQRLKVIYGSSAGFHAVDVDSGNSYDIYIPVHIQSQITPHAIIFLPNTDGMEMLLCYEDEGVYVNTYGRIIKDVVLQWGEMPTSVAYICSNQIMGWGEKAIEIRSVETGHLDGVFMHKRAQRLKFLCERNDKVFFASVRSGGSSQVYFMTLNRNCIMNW

[10] = biological target: cGMP-dependent protein kinase 1 (Homo sapiens, UniProt Q13976); format: functional;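 also: value from a kinome panel screen with PRKG1 as the panel member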
[11] = biological target: STE20-like serine/threonine-protein kinase (Homo sapiens, UniProt Q9H2G2); format: functional
STE20-like serine/threonine-protein kinase, sequence (Q9H2G2 whole entry): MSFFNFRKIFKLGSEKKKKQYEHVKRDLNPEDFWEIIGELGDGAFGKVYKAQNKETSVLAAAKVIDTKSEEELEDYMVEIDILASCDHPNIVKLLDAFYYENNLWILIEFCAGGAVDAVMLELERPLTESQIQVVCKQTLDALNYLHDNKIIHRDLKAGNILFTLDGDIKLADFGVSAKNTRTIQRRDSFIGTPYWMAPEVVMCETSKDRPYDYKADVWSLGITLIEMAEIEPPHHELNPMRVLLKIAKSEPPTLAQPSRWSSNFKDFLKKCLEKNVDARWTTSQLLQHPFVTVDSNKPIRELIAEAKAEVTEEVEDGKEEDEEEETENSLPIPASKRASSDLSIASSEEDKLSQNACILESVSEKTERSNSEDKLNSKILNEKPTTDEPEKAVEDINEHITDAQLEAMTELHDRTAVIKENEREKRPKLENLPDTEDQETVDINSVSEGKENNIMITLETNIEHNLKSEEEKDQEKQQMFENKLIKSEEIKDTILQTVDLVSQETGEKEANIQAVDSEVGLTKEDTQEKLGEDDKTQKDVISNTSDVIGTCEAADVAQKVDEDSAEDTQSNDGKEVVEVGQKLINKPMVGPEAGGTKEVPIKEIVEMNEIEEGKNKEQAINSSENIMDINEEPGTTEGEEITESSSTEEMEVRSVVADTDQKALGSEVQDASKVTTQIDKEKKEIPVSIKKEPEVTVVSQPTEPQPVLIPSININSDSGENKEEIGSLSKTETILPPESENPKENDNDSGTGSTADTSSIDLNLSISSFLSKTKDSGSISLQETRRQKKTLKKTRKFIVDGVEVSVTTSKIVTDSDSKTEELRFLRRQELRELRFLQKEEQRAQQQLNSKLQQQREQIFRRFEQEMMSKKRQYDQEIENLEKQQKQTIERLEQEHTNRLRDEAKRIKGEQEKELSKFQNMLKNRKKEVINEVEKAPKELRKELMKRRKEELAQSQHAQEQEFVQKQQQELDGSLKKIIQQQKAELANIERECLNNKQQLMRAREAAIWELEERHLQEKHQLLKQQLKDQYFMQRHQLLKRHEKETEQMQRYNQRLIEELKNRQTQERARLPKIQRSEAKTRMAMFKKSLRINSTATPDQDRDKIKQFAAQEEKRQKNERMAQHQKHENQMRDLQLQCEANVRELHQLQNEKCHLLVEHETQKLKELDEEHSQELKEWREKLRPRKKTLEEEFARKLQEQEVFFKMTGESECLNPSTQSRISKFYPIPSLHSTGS

[12] = biological target: Testis-specific serine/threonine-protein kinase 2 (Homo sapiens, UniProt Q96PF2); format: functional;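 also: part of the Navigating the Kinome panel, target entry STK22B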
[13] = biological target: Ribosomal protein S6 kinase alpha-5 (Homo sapiens, UniProt O75582); format: functional
[14] = biological target: Maternal embryonic leucine zipper kinase (Homo sapiens, UniProt Q14680); format: functional
Maternal embryonic leucine zipper kinase, sequence (Q14680 whole entry): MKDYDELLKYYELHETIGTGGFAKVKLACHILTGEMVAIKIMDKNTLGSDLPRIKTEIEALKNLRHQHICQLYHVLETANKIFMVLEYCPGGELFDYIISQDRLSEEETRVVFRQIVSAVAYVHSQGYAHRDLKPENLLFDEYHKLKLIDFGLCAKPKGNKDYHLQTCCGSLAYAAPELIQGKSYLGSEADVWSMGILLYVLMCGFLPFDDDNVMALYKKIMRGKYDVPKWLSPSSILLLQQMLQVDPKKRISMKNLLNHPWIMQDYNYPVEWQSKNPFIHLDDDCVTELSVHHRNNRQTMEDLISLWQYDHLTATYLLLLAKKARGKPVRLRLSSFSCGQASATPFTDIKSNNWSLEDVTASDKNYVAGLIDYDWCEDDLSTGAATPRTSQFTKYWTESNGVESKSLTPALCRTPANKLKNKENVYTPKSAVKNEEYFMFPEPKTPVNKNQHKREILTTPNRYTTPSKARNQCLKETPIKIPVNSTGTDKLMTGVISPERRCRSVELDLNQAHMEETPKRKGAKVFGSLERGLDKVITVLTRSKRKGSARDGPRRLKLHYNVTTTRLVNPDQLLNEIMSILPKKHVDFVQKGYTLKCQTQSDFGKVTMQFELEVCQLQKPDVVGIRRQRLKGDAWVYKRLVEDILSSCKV

`COc1ccc(-n2c(NC(=O)c3ccco3)c(C#N)c3nc4ccccc4nc32)cc1` was tested, and the IC50 [1] was > 128 µM (inactive), the IC50 [2] was > 100 µM (not active) and the IC50 [3] was 12.6 µM (active).
`[2H]C([2H])([2H])Oc1cccc(C(C)NC(=O)c2sc(-c3ccncc3)nc2C)c1` (stereo not given) was tested, and the Ki [4] was > 3.16 µM (inactive), the Ki [5] was > 2.51 µM (inactive) and the Ki [6] was > 2.51 µM (inactive).
`Cc1n[nH]c2ccc(-c3cncc(OCC(N)Cc4ccc(Cl)c(Cl)c4)c3)cc12` (stereo not given) was tested, and the Ki [7] was 126 nM (active), the Ki [8] was 3.98 µM (active) and the Ki [9] was 126 nM (active). For the same compound, the Ki (Misshapen-like kinase 1) was 20 nM (active), the Ki [10] was 7.94 nM (active) and the Ki [11] was 1.58 µM (active). For the same compound, the Ki [12] was > 1.58 µM (inactive), the Ki [13] was 1.26 nM (active) and the Ki [14] was 200 nM (active).
